Converted amounts (≈) assume the structure as drawn. Where two headings read alike, the source gives them in different places. Where a SMILES comes first, the peptide text is derived from it. Bridges are numbered along the chain shown (N, C = ends). Where no end group is shown, it is not given here. [ ]: non-standard residue; d: D form. The star is where a group is joined. X1 = CC[C@H](C)CCCCC(=O)*; Dab = NCC[C@H](N)C(=O)O

In general, MBC refers to the smallest concentration meeting the test's criterion for killing. A high value points to less potent killing.

For one assay, the system named is L. casei ATCC 393. The assay can be described thus: Lactobacilli susceptibility, broth microdilution (ISO 10932/IDF 233). The assay is classed as cell-based, Lactobacillus casei. The following applies: Lacticaseibacillus casei. The protocol:
(§1) To assess the effect of antibacterial peptides on lactobacilli, Lactobacillus acidophilus ATCC 4356, Lactobacillus casei ATCC 393, Lactobacillus fermentum ATCC 14931, and Lactobacillus rhamnosus ATCC 7469 strains (from American Type Culture Collection) were used. Before performing the test, cultures were streaked on Lactobacilli MRS agar (MRS) and incubated for 24 h at 37 °C in an anaerobic chamber (BD Difco, Detroit, MI, USA). Antibacterial susceptibility testing was performed according to the ISO 10932/IDF 233 standard (ISO, 2010). […] Typically, a twofold serial dilution of stock solutions was performed in Lactobacilli MRS broth to obtain solutions in the 0.2–100 µM concentration range. Bacterial inocula were prepared by suspending colonies, from 24 h incubated Lactobacilli MRS agar plates, into 2 mL of 0.85% NaCl solution. […] MIC values were estimated after incubating the plates under anaerobic conditions at 37 °C for 48 h.

The test system of a further assay is L. acidophilus ATCC 4356. The assay is described as above. The assay is classed as cell-based. Conditions: Lactobacillus acidophilus. The protocol:
as §1

For a further assay, the system named is L. fermentum ATCC 14931. The assay is described as above. The assay is classed as cell-based, Lactobacillus fermentum. Conditions: Limosilactobacillus fermentum. The protocol:
as §1

The next assay has as its system L. rhamnosus ATCC 7469. The description is as above. The assay is classed as cell-based, Lactobacillus rhamnosus. The following applies: Lacticaseibacillus rhamnosus. The protocol: as §1
Assay [1] relates to Salmonella typhimurium ATCC 14028. Format: cell-based. The protocol:
(§2) MIC (Minimum Inhibitory Concentration) analyses were performed on Gram-positive and Gram-negative bacteria by a broth microdilution method previously described, with minor modifications. In details, assays were carried out in Nutrient Broth 0.5× (Difco, Detroit, MI, USA) using sterile 96-well polypropylene microtiter plates (cat. 3879, Costar Corp., Cambridge, MA, USA). Bacterial strains were grown in Luria–Bertani (LB) medium overnight at 37 °C and then diluted in nutrient broth at a final concentration of ~ 5 × 10^5 CFU/mL per well. […] Peptide concentrations were determined by spectrophotometric analysis using the extinction coefficients calculated by the ProtParam tool (http://web.expasy.org/protparam/). Twofold serial dilutions of peptides were carried out in the test wells (0.2–100 μM concentration range). Plates were incubated overnight at 37 °C. MIC value was taken as the lowest concentration at which growth was inhibited. Three independent experiments were performed for each MIC value. The peptide antibiotic polymyxin B and vancomycin (Sigma, St. Louis, MO) were tested as control. MIC values were measured on: Pseudomonas aeruginosa PAO1, Acinetobacter baumanii ATCC 17878, Escherichia coli ATCC 25922, Salmonella typhimurium ATCC 14028, Salmonella enteritidis 706 RIVM (kindly provided by Prof. E. Veldhuizen, Utrecht University, Holland), Staphylococcus aureus ATCC 6538P, and Enterococcus faecalis ATCC 29212.

The subject of assay [2] is Acinetobacter baumanii ATCC 17878. Format: cell-based. Conditions: control antibiotic; broth microdilution, Nutrient Broth 0.5×, overnight 37 °C. The method, then:
as §2

The test system of assay [3] is Salmonella enteritidis 706 RIVM. Format: cell-based. The following applies: control antibiotic; broth microdilution, Nutrient Broth 0.5×, overnight 37 °C. The method, then: as §2
On the technique in general: Broth dilution looks for growth in wells or tubes with falling amounts of substance.

Assay [4] relates to Escherichia coli ATCC 25922. The assay is classed as cell-based. The protocol: as §2
The test system of assay [5] is Pseudomonas aeruginosa PAO1. Format: cell-based. Conditions: control antibiotic; broth microdilution, Nutrient Broth 0.5×, overnight 37 °C. The protocol:
as §2

For assay [6], the system named is Escherichia coli ATCC 25922. Format: cell-based. The protocol: The Minimum Bactericidal Concentration (MBC) was determined from the broth dilution of MIC tests by subculturing cell mixtures on agar plates. The MBC was defined as the lowest concentration of antibacterial agent that kills ≥ 99.9% of bacterial cells. According to a widely accepted criterion, peptides were considered bactericidal if their MBC was no more than four times the MIC.
This is another data set of the same source.

Assay [7] has as its system Enterococcus faecalis ATCC 29212. The assay can be described thus: microbe, parasite or virus in culture. The assay is classed as cell-based. The method, then:
as §2

Assay [8] concerns selected Gram-positive and Gram-negative strains. The assay can be described thus: Antimicrobial activity of mucosal peptides on selected strains. Format: cell-based. The following applies: summary of Table 3. The protocol:
as §2, with “The peptide antibiotic polymyxin B and vancomycin (Sigma, St. Louis, MO) were tested as control.” left out

[9] abbreviates: control antibiotic, broth microdilution, Nutrient Broth 0.5×, overnight 37 °C.

For the compound `CC[C@H]1OC(=O)[C@H](C)[C@@H](O[C@H]2C[C@@](C)(OC)[C@@H](O)[C@H](C)O2)[C@H](C)[C@@H](O[C@@H]2O[C@H](C)C[C@H](N(C)C)[C@H]2O)[C@](C)(O)C[C@@H](C)C(=O)[C@H](C)[C@@H](O)[C@]1(C)O` [Erythromycin], the MIC in the assay with L. casei ATCC 393 (ATCC393, Lactobacilli MRS broth, 3–8 × 10^5 CFU/mL, anaerobic, 37 °C, 48 h, 0.2–100 µM range, read-out: MIC) was determined as 2.8 µM (≈ 2.06 µg/mL); with L. acidophilus ATCC 4356 (ATCC4356, Lactobacilli MRS broth, 3–8 × 10^5 CFU/mL, anaerobic, 37 °C, 48 h, 0.2–100 µM range, read-out: MIC), 0.7 µM (≈ 0.514 µg/mL); in the assay on L. fermentum ATCC 14931 (ATCC14931, Lactobacilli MRS broth, 3–8 × 10^5 CFU/mL, anaerobic, 37 °C, 48 h, 0.2–100 µM range, read-out: MIC), 1.4 µM (≈ 1.03 µg/mL); in the assay with L. rhamnosus ATCC 7469 (ATCC7469, Lactobacilli MRS broth, 3–8 × 10^5 CFU/mL, anaerobic, 37 °C, 48 h, 0.2–100 µM range, read-out: MIC), 0.7 µM (≈ 0.514 µg/mL).
With `CC[C@H](C)CCCCC(=O)N[C@@H](CCN)C(=O)N[C@H](C(=O)N[C@@H](CCN)C(=O)N[C@H]1CCNC(=O)[C@H]([C@@H](C)O)NC(=O)[C@H](CCN)NC(=O)[C@H](CCN)NC(=O)[C@H](CC(C)C)NC(=O)[C@@H](Cc2ccccc2)NC(=O)[C@H](CCN)NC1=O)[C@@H](C)O` [Polymyxin B, polymyxin B] (X1-[Dab]T[Dab][Dab][Dab][dF]L[Dab][Dab]T; lactam 4-C (inferred); N-terminus assumed), the MIC was found to be 0.12 µg/mL in [1] (setting [9]); 0.5 µg/mL (≈ 0.415 µM) in assay [2]; 0.5 µg/mL (≈ 0.415 µM) in [3]; 0.5 µg/mL in [4] (setting [9]); 0.25 µg/mL (≈ 0.208 µM) in assay [5].
The compound LKNARIVGELTGFRPVRPQVRLE [LKN] displayed a minimal bactericidal concentration (MBC) in [6] of 50 µM. Moreover, the MIC in assay [7] (ATCC 29212) is greater than 200 µM; in [1] (ATCC 14028), greater than 200 µM; in assay [4] (ATCC 25922), 50 µM.
Consider `CN[C@H](CC(C)C)C(=O)N[C@H]1C(=O)N[C@@H](CC(N)=O)C(=O)N[C@H]2C(=O)N[C@H]3C(=O)N[C@H](C(=O)N[C@H](C(=O)O)c4cc(O)cc(O)c4-c4cc3ccc4O)[C@H](O)c3ccc(c(Cl)c3)Oc3cc2cc(c3O[C@@H]2O[C@H](CO)[C@@H](O)[C@H](O)[C@H]2O[C@H]2C[C@](C)(N)[C@H](O)[C@H](C)O2)Oc2ccc(cc2Cl)[C@H]1O` [Vancomycin, vancomycin], for which the MIC was greater than 100 µM with L. casei ATCC 393 (ATCC393, 48 h); greater than 100 µM against L. acidophilus ATCC 4356 (ATCC4356, 48 h); greater than 100 µM with L. fermentum ATCC 14931 (ATCC14931, 48 h); 2 µg/mL in [7] (Enterococcus faecalis, ATCC29212); greater than 100 µM in the assay on L. rhamnosus ATCC 7469 (ATCC7469, 48 h).
EAANLFGKILEEKKLSRLPPSHL [EAA]: the “antibacterial activity (in words)” value in assay [8] is “did not show any antibacterial activity”. The MIC in [7] (ATCC 29212) and in assay [1] (ATCC 14028) was greater than 200 µM in each case.

For the origin of these results see article PMC8038955, “Antimicrobial D-amino acid oxidase-derived peptides specify gut microbiota” (Cellular and Molecular Life Sciences: CMLS, 2021).
